Like-named read-outs stand apart in the source and are kept apart here. Some results are limits rather than exact numbers.

Here are results for 19 molecules from patent US4668799A, “Anti-hepatitis and anti-cirrhotic 1,3-dithiol-2-ylidene derivatives, and pharmaceutical compositions therefor” (Banyu Pharmaceutical Co., Ltd., priority 1985, dated 1987).

In data set [1] the test system is mice. Description: Acute Toxicity Test. The class given is in vivo. As to conditions: oral, one week after administration. As to the method: (§1) A test compound was dissolved or suspended in olive oil and administered orally to mice (ddY mice, .male., 23±2 g, n=5). The acute toxicity value (LD50) was determined from the mortality one week after the administration.

Data set [2] in a line: Acute Toxicity Test. The class given is in vivo. To be noted: mouse, in vivo; mice, oral, mortality one week after administration. The method, then: as §1
Data set [3] deals with liver (acute liver injury induced by carbon tetrachloride). Kind of data set: Protective Effect on Acute Liver Injury Induced by Carbon Tetrachloride. To be noted: mice; for inhibition in vivo at 50 mg/kg: Mus musculus, po, 50 mg/kg p.o. 6 h before CCl4, CCl4 alone = 0, normal = 100; for Liver Damage Index: 50 mg/kg p.o. 6 h before CCl4 0.05 ml/kg p.o., visual score 0 normal, 2 slightly, 4 distinctly, 6 remarkably injured, CCl4 alone 6.0. It is filed as in vivo, mice (ddY). The method, then:
A test compound was dissolved or suspended in olive oil and administered orally at a dose of 50 mg/kg to mice (ddY, mice, .male., 23±2 g, n=5). After 6 hours, carbon tetrachloride (0.05 ml/kg) was administered orally, 24 Hours after the administration of carbon tetrachloride, BSP (sodium sulfobromophthalene; 75 mg/kg) was administered intravenously. Thirty minutes later, the cardiac blood was collected, and GPT (glutamic-pyruvic transaminase) activity and the retention rate of BSP in the plasma were measured. Further, the liver injury immediately after the collection of the blood was visually observed and evaluated by the following score for liver damage index.

Data set [4] relates to liver protein synthesis. Kind of data set: Effect on Protein Synthesis in Liver. The class given is in vivo, rats (Wister strain). As to conditions: rats, 100 mg/kg p.o. for 3 days. The method, then: Compound 6 was dissolved in olive oil and orally administered successively for 3 days at a dose of 100 mg/kg to rats (Wister strain, .male., 180±10 g, 6 week-old, n=5). 24 Hours after the administration of the test compound was completed, the animals were sacrificed. The effect on the protein synthesis in the liver was evaluated by determining the liver weight and protein content.

Data set [5] concerns fatty liver induced by carbon tetrachloride. Description: Therapeutic Effect on Fatty Liver Induced by Carbon Tetrachloride. It is filed as in vivo, rats (SD strain). To be noted: rats, 50 mg/kg p.o. for 7 days. The method, then: Carbon tetrachloride (1 ml/kg) was subcutaneously administered to rats (SD strain, .male., 38 week-old, n=5) for 4 days. Upon expiration of 3 days from the administration of carbon tetrachloride, Compound 6 was orally given successively for 7 days at the dose of 50 mg/kg. On the 8th day, the animals were sacrificed by exsanguination. The therapeutic effect was evaluated by examining the content of triglyceride in the liver and the concentration of apoprotein B in the plasma.

Data set [6] concerns liver damages. As to conditions: in vivo; cited from earlier work.
Where [7] appears, read: BSP 75 mg/kg i.v., retention in plasma after 30 min, read-out: % Prophylaxis BSP.
Setting [8] is: plasma GPT activity, read-out: % Prophylaxis p-GPT.

Regarding `CC(=O)C(C(=O)C1CCCCC1)=C1SC=CS1` [Compound 5, 2-(1,3-dithiol-2-ylidene)-1-cyclohexyl-1,3-butanedione], in data set [1], the “toxicity (in words)” value is “low toxicity”. Further, the median lethal dose (LD50) at 168 h in data set [2] was at least 2000 mg/kg. The inhibition in vivo at 50 mg/kg in data set [3] (setting [7]) amounted to 96%; in data set [3] (setting [8]), 89%. Besides, the “Liver Damage Index” value in data set [3] stood at 2.8.
For the molecule `CCCCCCCCCCCCCCCC(=O)C(C(=O)c1ccccc1)=C1SC=CS1` [Compound 10, 2-(1,3-dithiol-2-ylidene)-1-phenyl-1,3-octadecanedione], the inhibition in vivo at 50 mg/kg in data set [3] (setting [7]) was 78%; in data set [3] (setting [8]) it was 42%. Also, the “Liver Damage Index” value in data set [3] came to 2.0.
Regarding `CC(=O)C(C(=O)c1ccc2ccccc2c1)=C1SC=CS1` [Compound 28, 2-(1,3-dithiol-2-ylidene)-1-(2-naphthyl)-1,3-butanedione], the “toxicity (in words)” value in data set [1] is on record as “low toxicity”. Moreover, in data set [2], the LD50 at 168 h is at least 2000 mg/kg.
On to `CC(=O)C(C(=O)c1ccccc1)=C1SC=CS1` [Compound 6, 2-(1,3-dithiol-2-ylidene)-1-phenyl-1,3-butanedione], for which the “toxicity (in words)” value in data set [1] is on record as “low toxicity”. Besides, the LD50 at 168 h in data set [2] was at least 2000 mg/kg. In data set [4], the “effect for stimulating the protein metabolic function of the liver (in words)” value is “substantial effect for stimulating the protein metabolic function of the liver”. Further, the “effect for curing the fatty liver (in words)” value in data set [5] was “significant effect for curing the fatty liver”.
`CC1CCC(=O)C(=C2SC=CS2)C1=O` (centres unmarked) [Compound 42, 2-(1,3-dithiol-2-ylidene)-4-methyl-1,3-cyclohexanedione]: the inhibition in vivo at 50 mg/kg turned out to be 60% in data set [3] (setting [7]) and 29% in data set [3] (setting [8]). In addition, the “Liver Damage Index” value in data set [3] is 6.0.
As to `CCOCC(=O)C(C(C)=O)=C1SC=CS1` [Compound 3, 3-(1,3-dithiol-2-ylidene)-1-ethoxy-2,4-pentanedione], the values for the inhibition in vivo at 50 mg/kg in data set [3] (setting [7]) and in data set [3] (setting [8]) were 102% and 97%, respectively. In data set [3], the “Liver Damage Index” value turned out to be 2.2.
As for `CC(=O)C(C(=O)c1cccc2ccccc12)=C1SC=CS1` [Compound 27, 2-(1,3-dithiol-2-ylidene)-1-(1-naphthyl)-1,3-butanedione], in data set [1], the “toxicity (in words)” value is given as “low toxicity”. Besides, the LD50 at 168 h in data set [2] is at least 2000 mg/kg.
On to `CCC(=O)C(C(C)=O)=C1SC=CS1` [Compound 2, 3-(1,3-dithiol-2-ylidene)-2,4-hexanedione], for which the figures for the inhibition in vivo at 50 mg/kg in data set [3] (setting [7]) and in data set [3] (setting [8]) were 85% and 72%, respectively. Besides, the “Liver Damage Index” value in data set [3] was 1.4.
For the molecule `CC(=O)C(C(=O)c1ccc(C)cc1)=C1SC=CS1` [Compound 12, 2-(1,3-dithiol-2-ylidene)-1-(4-methylphenyl)-1,3-butanedione], the “toxicity (in words)” value in data set [1] is listed as “low toxicity”. The molecule further came in with an LD50 at 168 h in data set [2] of at least 2000 mg/kg.
Regarding `CC(=O)C(C(C)=O)=C1SC=CS1` [Compound 1, 3-(1,3-dithiol-2-ylidene)-2,4-pentanedione], the inhibition in vivo at 50 mg/kg in data set [3] (setting [7]) amounted to 80%; in data set [3] (setting [8]), 25%. In addition, the “Liver Damage Index” value in data set [3] turned out to be 5.0.
On to `CC(C)CC(=O)C(C(=O)c1ccccc1)=C1SC=CS1` [Compound 8, 2-(1,3-dithiol-2-ylidene)-5-methyl-1-phenyl-1,3-hexanedione], for which the “toxicity (in words)” value in data set [1] is on record as “low toxicity”. In data set [2], this molecule gave an LD50 at 168 h of at least 2000 mg/kg.
For the molecule `CC(=O)C(C(=O)c1ccc(O)cc1)=C1SC=CS1` [Compound 45, 2-(1,3-dithiol-2-ylidene)-1-(4-hydroxyphenyl)-1,3-butanedione], the “toxicity (in words)” value in data set [1] was “low toxicity”. In data set [2], this molecule returned an LD50 at 168 h of at least 2000 mg/kg.
As for `CC(C)OC(=O)C(C(=O)OC(C)C)=C1SC=CS1` [Malotilate], in data set [6], the “effectiveness for the treatment of liver damages (in words)” value is given as “effective for the treatment of liver damages”.
For the molecule `CC(C)CC(=O)C(C(=O)CC(C)C)=C1SC=CS1` [Compound 4, 5-(1,3-dithiol-2-ylidene)-2,8-dimethyl-4,6-nonanedione], the “toxicity (in words)” value in data set [1] is “low toxicity”. For the same molecule, in data set [2], the median lethal dose (LD50) at 168 h was at least 2000 mg/kg. For the same molecule, the inhibition in vivo at 50 mg/kg in data set [3] (setting [7]) came out at 108%; in data set [3] (setting [8]), 100%. For the same molecule, in data set [3], the “Liver Damage Index” value came out at 1.0.
Consider `COc1ccc(C(=O)C(C(C)=O)=C2SC=CS2)cc1` [Compound 17, 2-(1,3-dithiol-2-ylidene)-1-(4-methoxyphenyl)-1,3-butanedione], for which the “toxicity (in words)” value in data set [1] is recorded as “low toxicity”. The LD50 at 168 h in data set [2] was at least 2000 mg/kg.
In the case of `O=C1CCCC(=O)C1=C1SC=CS1` [Compound 41, 2-(1,3-dithiol-2-ylidene)-1,3-cyclohexanedione], the results for the inhibition in vivo at 50 mg/kg in data set [3] (setting [7]) and in data set [3] (setting [8]) were 66% and 29%, respectively. The “Liver Damage Index” value in data set [3] is 6.0.
Take `CC(C)C1CCC(=O)C(=C2SC=CS2)C1=O` (centres unmarked) [Compound 43, 2-(1,3-dithiol-2-ylidene)-4-isopropyl-1,3-cyclohexanedione]: the inhibition in vivo at 50 mg/kg in data set [3] (setting [7]) was 95%; in data set [3] (setting [8]) it was 67%. Also, the “Liver Damage Index” value in data set [3] was 5.6.
For the molecule `CCCC(=O)C(C(=O)c1ccccc1)=C1SC=CS1` [Compound 7, 2-(1,3-dithiol-2-ylidene)-1-phenyl-1,3-hexanedione], in data set [1], the “toxicity (in words)” value was “low toxicity”. In data set [2], this molecule registered an LD50 at 168 h of at least 2000 mg/kg.
Consider `CC1(C)CC(=O)C(=C2SC=CS2)C(=O)C1` [Compound 44, 2-(1,3-dithiol-2-ylidene)-5,5-dimethyl-1,3-cyclohexanedione], for which the inhibition in vivo at 50 mg/kg is 111% in data set [3] (setting [7]) and 95% in data set [3] (setting [8]). In addition, the “Liver Damage Index” value in data set [3] stood at 1.2.
